Like-named read-outs stand apart in the source and are kept apart here.
Assays:
hT2R61 = hT2R61 (Homo sapiens (Human), UniProt P59537); experiment: hT2R panel inhibition, transient HEK293 G16g44, agonist Aristolochic Acid 25 nM; assay type: cell-based; settings: HEK293, compound at 25 μM; receptor activated to EC80 with the corresponding agonist; read-out: screening result against bitter receptor 61
How it was run: (§1)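 The test compound's selectivity was profiled by challenging each transiently expressed human T2R with its activating bitter ligand at an EC80 concentration, inhibition being the reduction of receptor signalling it produced.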

hT2R71 = hT2R71 (Homo sapiens (Human), UniProt P59536); experiment: hT2R panel inhibition, transient HEK293 G16g44, agonist Picric Acid 10 μM; assay type: cell-based; settings: HEK293, compound at 25 μM; receptor activated to EC80 with the corresponding agonist; read-out: screening result against bitter receptor 71
How it was run: as §1

hT2R75 = hT2R75 (Homo sapiens (Human), UniProt P59540); experiment: hT2R panel inhibition, transient HEK293 G16g44, agonist Strychnine 1 μM; assay type: cell-based; settings: HEK293, read-out: screening result against bitter receptor 75, compound at 25 μM; receptor activated to EC80 with the corresponding agonist
hT2R64 = hT2R64 (Homo sapiens (Human), UniProt P59538); experiment: hT2R panel inhibition, transient HEK293 G16g44, agonist Aristolochic Acid 1 μM; assay type: cell-based; settings: HEK293, compound at 25 μM; receptor activated to EC80 with the corresponding agonist; read-out: screening result against bitter receptor 64
How it was run: as §1

hT2R4 = hT2R4 (Homo sapiens (Human), UniProt Q9NYW5); experiment: hT2R panel inhibition, transient HEK293 G16g44, agonist Chloroquine pH6.5 5 mM; assay type: cell-based; settings: HEK293, compound at 25 μM; receptor activated to EC80 with the corresponding agonist; class symbols; read-out: screening result against bitter receptor 4
Method: Specifically, in order to evaluate the inhibitory selectivity of the Compound C compound, this compound was tested against 22 human T2Rs which were deorphaned by Senomyx. These receptors and the bitter ligands that activate these human T2Rs are reported in earlier patent applications which are incorporated by reference herein. These 22 human T2Rs are hT2R1, 3, 4, 5, 7, 8, 9, 10, 13, 14, 16, 44, 51, 54, 55, 61, 63, 64, 65, 67, 71 and 75. The amino acid and nucleic acid sequences of all of these T2Rs may be found in these earlier patent applications. These human T2Rs were each individually transiently transfected into HEK293 cells that stably express the promiscuous G protein G16g44 and functional assays were effected using these receptors as disclosed in these same patent applications. […] The ligands were used at EC80 concentration levels. The list of bitter ligands utilized and the tested ligand concentrations are contained in Table 5 of this example.
Relating to the foregoing, FIG. 5 contains experimental results wherein Compound C was tested with different agonist compounds. The inhibition activity is represented by the reduction of receptor activity in the presence of Compound C. […] These 13 hT2Rs are hT2R3, 7, 10, 14, 16, 44, 51, 55, 61, 63, 64, 65, and 71.

hT2R16 = hT2R16 (Homo sapiens (Human), UniProt Q9NYV7); experiment: hT2R panel inhibition, transient HEK293 G16g44, agonist Salicin 1 mM; assay type: cell-based; settings: HEK293, compound at 25 μM; receptor activated to EC80 with the corresponding agonist; read-out: screening result against bitter receptor 16
How it was run: as §1

hT2R51 = hT2R51 (Homo sapiens (Human), UniProt P59533); experiment: hT2R panel inhibition, transient HEK293 G16g44, agonist Prop 2.5 μM; assay type: cell-based; settings: HEK293, compound at 25 μM; receptor activated to EC80 with the corresponding agonist; read-out: screening result against bitter receptor 51
How it was run: as §1

hT2R3 = hT2R3 (Homo sapiens (Human), UniProt Q9NYW6); experiment: hT2R panel inhibition, transient HEK293 G16g44, agonist Chloroquine pH6.5 50 μM; assay type: cell-based; settings: HEK293, compound at 25 μM; receptor activated to EC80 with the corresponding agonist; read-out: screening result against bitter receptor 3
How it was run: as §1

hT2R67 = experiment: hT2R panel inhibition, transient HEK293 G16g44, agonist Andrographolide 5 μM; assay type: cell-based, human; settings: compound at 25 μM; receptor activated to EC80 with the corresponding agonist
How it was run: as §1

hT2R54 = experiment: hT2R panel inhibition, transient HEK293 G16g44, agonist Ranitidine 5 mM; assay type: cell-based, human; settings: compound at 25 μM; receptor activated to EC80 with the corresponding agonist
How it was run: as §1

hT2R10 = hT2R10 (Homo sapiens (Human), UniProt Q9NYW0); experiment: hT2R panel inhibition, transient HEK293 G16g44, agonist Strychnine 50 μM; assay type: cell-based; settings: HEK293, read-out: screening result against bitter receptor 10, compound at 25 μM; receptor activated to EC80 with the corresponding agonist
hT2R5 = hT2R5 (Homo sapiens (Human), UniProt Q9NYW4); experiment: hT2R panel inhibition, transient HEK293 G16g44, agonist Picoline 10 mM; assay type: cell-based; settings: HEK293, compound at 25 μM; receptor activated to EC80 with the corresponding agonist; read-out: screening result against bitter receptor 5
How it was run: as §1

hT2R14 [1] = target: T1, hT2R14 (Homo sapiens (Human), UniProt Q9NYV8); experiment: hT2R14 antagonist high-throughput FLIPR assay, stable cell line with G16g44, agonist aristolochic acid; assay type: cell-based
How it was run: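 HEK293 cells stably expressing hT2R14 with chimeric G16g44 were stimulated with aristolochic acid (3 μM), giving 70-80% of maximal receptor activity. Test compounds were added together with the agonist, and antagonism was read as fluorescent calcium signal on FLIPR.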

hT2R65 = experiment: hT2R panel inhibition, transient HEK293 G16g44, agonist Oleuropein 1 mM; assay type: cell-based, human; settings: compound at 25 μM; receptor activated to EC80 with the corresponding agonist
How it was run: as §1

hT2R7 = hT2R7 (Homo sapiens (Human), UniProt Q9NYW3); experiment: hT2R panel inhibition, transient HEK293 G16g44, agonist Chloroquine pH6.5 10 mM; assay type: cell-based; settings: HEK293, compound at 25 μM; receptor activated to EC80 with the corresponding agonist; read-out: screening result against bitter receptor 7
How it was run: as §1

hT2R14 [2] = target: T1, hT2R14; experiment: hT2R panel inhibition, transient HEK293 G16g44, agonist Aristolochic Acid 2 μM; assay type: cell-based; settings: HEK293, compound at 25 μM; receptor activated to EC80 with the corresponding agonist; read-out: screening result against bitter receptor 14
How it was run: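 Each hT2R was transiently transfected into HEK293 cells stably expressing G16g44 and assayed functionally for inhibition of agonist response. Agonists were applied at EC80: andrographolide at 0.5 mM for hT2R8 and aristolochic acid at 2 μM for hT2R14.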

hT2R44 = experiment: hT2R panel inhibition, transient HEK293 G16g44, agonist Denatonium 0.5 μM; assay type: cell-based, human; settings: compound at 25 μM; receptor activated to EC80 with the corresponding agonist
How it was run: as §1

hT2R63 = experiment: hT2R panel inhibition, transient HEK293 G16g44, agonist Caffeine 1 mM or Andrographolide 100 μM; assay type: cell-based, human; settings: compound at 25 μM; receptor activated to EC80 with the corresponding agonist
How it was run: as §1

hT2R55 = experiment: hT2R panel inhibition, transient HEK293 G16g44, agonist Cinchonine 150 μM; assay type: cell-based, human; settings: compound at 25 μM; receptor activated to EC80 with the corresponding agonist
How it was run: as §1

[3] = read-out: IC50 on hT2R14 bitter receptor

hT2R75, sequence (P59540 whole entry): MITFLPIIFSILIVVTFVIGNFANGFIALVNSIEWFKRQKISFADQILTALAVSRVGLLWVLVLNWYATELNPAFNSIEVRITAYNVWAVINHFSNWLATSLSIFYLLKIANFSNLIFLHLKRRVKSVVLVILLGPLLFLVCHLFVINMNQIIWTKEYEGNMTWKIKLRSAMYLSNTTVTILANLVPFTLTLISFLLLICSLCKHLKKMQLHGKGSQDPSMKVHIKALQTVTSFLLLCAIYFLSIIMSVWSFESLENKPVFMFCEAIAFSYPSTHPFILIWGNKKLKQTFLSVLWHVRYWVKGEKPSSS
hT2R7, sequence (Q9NYW3 whole entry): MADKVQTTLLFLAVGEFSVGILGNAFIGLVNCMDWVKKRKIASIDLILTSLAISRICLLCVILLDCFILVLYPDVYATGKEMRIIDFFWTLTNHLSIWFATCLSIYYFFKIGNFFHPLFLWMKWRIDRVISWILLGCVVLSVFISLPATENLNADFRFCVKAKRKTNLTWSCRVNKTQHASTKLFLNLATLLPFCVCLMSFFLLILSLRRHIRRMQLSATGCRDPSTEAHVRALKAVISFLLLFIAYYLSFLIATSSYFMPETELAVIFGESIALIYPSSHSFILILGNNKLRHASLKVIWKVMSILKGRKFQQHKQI
hT2R61, sequence (P59537 whole entry): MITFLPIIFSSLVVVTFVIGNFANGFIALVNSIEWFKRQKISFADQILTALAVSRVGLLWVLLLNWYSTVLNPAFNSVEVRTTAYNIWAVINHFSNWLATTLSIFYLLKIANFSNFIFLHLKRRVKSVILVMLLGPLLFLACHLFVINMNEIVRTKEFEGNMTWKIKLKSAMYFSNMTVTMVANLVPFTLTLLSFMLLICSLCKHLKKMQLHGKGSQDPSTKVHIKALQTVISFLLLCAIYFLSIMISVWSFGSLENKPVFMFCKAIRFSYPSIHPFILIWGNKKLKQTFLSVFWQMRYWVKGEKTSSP
hT2R3, sequence (Q9NYW6 whole entry): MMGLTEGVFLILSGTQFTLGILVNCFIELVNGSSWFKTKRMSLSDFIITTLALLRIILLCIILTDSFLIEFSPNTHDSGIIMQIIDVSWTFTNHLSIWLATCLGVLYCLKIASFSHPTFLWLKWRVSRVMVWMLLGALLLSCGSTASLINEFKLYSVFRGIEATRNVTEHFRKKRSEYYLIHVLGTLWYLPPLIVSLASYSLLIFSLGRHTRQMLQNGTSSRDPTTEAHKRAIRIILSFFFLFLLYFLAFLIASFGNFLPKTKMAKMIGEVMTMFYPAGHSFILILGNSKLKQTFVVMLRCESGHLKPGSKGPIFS
T1 sequence (Q9NYV8 whole entry): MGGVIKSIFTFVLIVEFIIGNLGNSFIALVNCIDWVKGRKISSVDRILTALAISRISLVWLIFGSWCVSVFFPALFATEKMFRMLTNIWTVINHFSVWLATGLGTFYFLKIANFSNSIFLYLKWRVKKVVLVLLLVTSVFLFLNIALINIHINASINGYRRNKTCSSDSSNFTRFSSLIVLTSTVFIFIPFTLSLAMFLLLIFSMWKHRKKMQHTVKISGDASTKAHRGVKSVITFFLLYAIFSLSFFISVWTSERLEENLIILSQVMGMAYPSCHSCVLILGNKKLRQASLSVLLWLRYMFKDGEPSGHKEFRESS
hT2R64, sequence (P59538 whole entry): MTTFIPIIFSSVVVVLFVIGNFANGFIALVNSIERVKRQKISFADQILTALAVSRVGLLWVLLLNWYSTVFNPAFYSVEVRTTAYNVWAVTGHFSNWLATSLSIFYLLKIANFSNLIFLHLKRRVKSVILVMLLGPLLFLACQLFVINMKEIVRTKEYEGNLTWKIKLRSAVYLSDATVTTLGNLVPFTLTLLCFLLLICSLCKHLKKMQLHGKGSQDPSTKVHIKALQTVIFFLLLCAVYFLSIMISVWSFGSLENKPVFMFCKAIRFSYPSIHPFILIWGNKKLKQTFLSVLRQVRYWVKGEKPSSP
hT2R16, sequence (Q9NYV7 whole entry): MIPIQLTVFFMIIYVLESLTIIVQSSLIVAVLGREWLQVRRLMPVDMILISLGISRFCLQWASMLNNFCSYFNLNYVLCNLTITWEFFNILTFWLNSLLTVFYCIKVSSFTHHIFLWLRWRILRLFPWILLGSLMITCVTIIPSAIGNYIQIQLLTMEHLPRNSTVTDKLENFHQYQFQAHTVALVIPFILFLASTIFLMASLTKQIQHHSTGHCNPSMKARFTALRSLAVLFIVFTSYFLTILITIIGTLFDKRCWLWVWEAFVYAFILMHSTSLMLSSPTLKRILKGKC
hT2R71, sequence (P59536 whole entry): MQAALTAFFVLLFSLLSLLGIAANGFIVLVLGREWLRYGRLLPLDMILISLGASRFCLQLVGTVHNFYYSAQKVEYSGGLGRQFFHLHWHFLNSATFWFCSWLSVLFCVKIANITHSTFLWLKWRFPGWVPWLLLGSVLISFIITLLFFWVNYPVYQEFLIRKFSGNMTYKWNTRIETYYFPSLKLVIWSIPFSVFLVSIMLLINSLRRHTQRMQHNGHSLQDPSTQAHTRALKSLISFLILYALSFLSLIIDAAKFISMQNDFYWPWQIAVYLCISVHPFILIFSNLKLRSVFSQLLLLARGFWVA
hT2R10, sequence (Q9NYW0 whole entry): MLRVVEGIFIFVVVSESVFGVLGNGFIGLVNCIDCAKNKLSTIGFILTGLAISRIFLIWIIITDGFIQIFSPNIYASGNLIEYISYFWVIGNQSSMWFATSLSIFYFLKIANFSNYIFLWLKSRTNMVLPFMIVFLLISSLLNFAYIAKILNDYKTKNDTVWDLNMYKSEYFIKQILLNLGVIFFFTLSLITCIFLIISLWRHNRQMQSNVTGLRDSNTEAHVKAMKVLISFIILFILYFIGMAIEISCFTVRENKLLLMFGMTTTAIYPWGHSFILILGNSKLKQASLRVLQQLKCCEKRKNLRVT
hT2R4, sequence (Q9NYW5 whole entry): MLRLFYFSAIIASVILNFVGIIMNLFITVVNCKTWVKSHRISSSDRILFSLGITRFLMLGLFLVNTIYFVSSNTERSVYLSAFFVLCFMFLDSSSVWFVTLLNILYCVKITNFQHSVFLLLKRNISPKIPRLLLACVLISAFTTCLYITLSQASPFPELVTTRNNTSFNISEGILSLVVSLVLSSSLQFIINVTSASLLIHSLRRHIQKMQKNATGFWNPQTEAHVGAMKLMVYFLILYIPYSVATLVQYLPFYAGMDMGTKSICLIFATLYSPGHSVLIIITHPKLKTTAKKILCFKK
hT2R51, sequence (P59533 whole entry): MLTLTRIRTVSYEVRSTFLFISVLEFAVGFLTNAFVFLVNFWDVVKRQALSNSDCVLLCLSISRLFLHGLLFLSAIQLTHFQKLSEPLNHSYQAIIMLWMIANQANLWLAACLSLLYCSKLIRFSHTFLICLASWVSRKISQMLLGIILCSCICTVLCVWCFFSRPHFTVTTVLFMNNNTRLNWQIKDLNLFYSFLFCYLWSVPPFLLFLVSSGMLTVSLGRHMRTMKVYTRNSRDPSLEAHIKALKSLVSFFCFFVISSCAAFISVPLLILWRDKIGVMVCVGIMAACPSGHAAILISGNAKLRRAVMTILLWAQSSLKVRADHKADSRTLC
hT2R5, sequence (Q9NYW4 whole entry): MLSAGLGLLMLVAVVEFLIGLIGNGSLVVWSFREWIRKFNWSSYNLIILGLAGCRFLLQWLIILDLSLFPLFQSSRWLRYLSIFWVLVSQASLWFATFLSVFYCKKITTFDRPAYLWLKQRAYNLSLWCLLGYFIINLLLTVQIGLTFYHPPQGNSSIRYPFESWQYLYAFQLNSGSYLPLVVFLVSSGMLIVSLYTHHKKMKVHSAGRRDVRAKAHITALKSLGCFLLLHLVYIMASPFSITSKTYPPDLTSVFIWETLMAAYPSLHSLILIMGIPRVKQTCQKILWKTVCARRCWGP

O=C(O)c1ccc(CN(Cc2ccccc2F)S(=O)(=O)c2ccccc2)cc1 [Example 5-103, 4-((N-(2-fluorobenzyl)phenylsulfonamido)methyl)-benzoic acid]
inhibition at 25 µM (hT2R61): > 80% | inhibition at 25 µM (hT2R71): > 80% | inhibition at 25 µM (hT2R75): 20 to 40% | inhibition at 25 µM (hT2R64): > 80% | inhibition at 25 µM (hT2R4): 40 to 60% | inhibition at 25 µM (hT2R16): 20 to 40% | inhibition at 25 µM (hT2R51): 20 to 40% | inhibition at 25 µM (hT2R3): 40 to 60% | screening result against bitter receptor 67 (hT2R67): + (20% to 40% inhibition = +) | screening result against bitter receptor 54 (hT2R54): ++ (40% to 60% inhibition = ++) | inhibition at 25 µM (hT2R10): 20 to 40% | inhibition at 25 µM (hT2R5): 20 to 40% | IC50 (hT2R14 [1]; Table C, read-out: hT2R14 IC50): 429 nM | screening result against bitter receptor 65 (hT2R65): ++ (40% to 60% inhibition = ++) | inhibition at 25 µM (hT2R7): 20 to 40% | inhibition at 25 µM (hT2R14 [2]): > 80% | screening result against bitter receptor 44 (hT2R44): +++ (60% to 80% inhibition = +++) | screening result against bitter receptor 63 (hT2R63): ++ (40% to 60% inhibition = ++) | screening result against bitter receptor 55 (hT2R55): ++++ (80% or greater inhibition = ++++)

O=C(O)C1CCC(CN(Cc2ccc(F)cc2)S(=O)(=O)c2cccs2)CC1 (stereo not shown) [Example 5-51, 4-((N-(4-fluorobenzyl)thiophene-2-sulfonamido)methyl)cyclohexanecarboxylic acid]
inhibition at 25 µM (hT2R61): > 80% | inhibition at 25 µM (hT2R71): 40 to 60% | inhibition at 25 µM (hT2R75): 20 to 40% | inhibition at 25 µM (hT2R64): 40 to 60% | inhibition at 25 µM (hT2R4): 20 to 40% | inhibition at 25 µM (hT2R16): 20 to 40% | inhibition at 25 µM (hT2R3): 40 to 60% | inhibition at 25 µM (hT2R10): 20 to 40% | IC50 (hT2R14 [1]; Table C, read-out: hT2R14 IC50): 342 nM | screening result against bitter receptor 65 (hT2R65): + (20% to 40% inhibition = +) | inhibition at 25 µM (hT2R7): 20 to 40% | inhibition at 25 µM (hT2R14 [2]): > 80% | screening result against bitter receptor 44 (hT2R44): ++ (40% to 60% inhibition = ++) | screening result against bitter receptor 63 (hT2R63): +++ (60% to 80% inhibition = +++) | screening result against bitter receptor 55 (hT2R55): +++ (60% to 80% inhibition = +++)

COc1cccc(CN(Cc2ccco2)S(=O)(=O)c2ccc(C(=O)O)cc2)c1 [Example 5-6, 4-(N-(furan-2-ylmethyl)-N-(3-methoxybenzyl)sulfamoyl)benzoic acid]
inhibition at 25 µM (hT2R61): > 80% | inhibition at 25 µM (hT2R71): 40 to 60% | inhibition at 25 µM (hT2R75): 20 to 40% | inhibition at 25 µM (hT2R64): > 80% | inhibition at 25 µM (hT2R4): 20 to 40% | inhibition at 25 µM (hT2R16): 20 to 40% | inhibition at 25 µM (hT2R51): 40 to 60% | inhibition at 25 µM (hT2R3): 20 to 40% | screening result against bitter receptor 54 (hT2R54): + (20% to 40% inhibition = +) | inhibition at 25 µM (hT2R10): 40 to 60% | IC50 (hT2R14 [1]; [3]): 10000 nM | screening result against bitter receptor 65 (hT2R65): + (20% to 40% inhibition = +) | inhibition at 25 µM (hT2R7): 20 to 40% | inhibition at 25 µM (hT2R14 [2]): > 80% | screening result against bitter receptor 44 (hT2R44): ++ (40% to 60% inhibition = ++) | screening result against bitter receptor 63 (hT2R63): ++++ (80% or greater inhibition = ++++) | screening result against bitter receptor 55 (hT2R55): ++++ (80% or greater inhibition = ++++)

CCCN(Cc1ccc(OC)cc1)S(=O)(=O)c1ccc(C(=O)O)cc1 [Example 5-17, 4-(N-(4-methoxybenzyl)-N-propylsulfamoyl)benzoic acid]
inhibition at 25 µM (hT2R61): > 80% | inhibition at 25 µM (hT2R71): 40 to 60% | inhibition at 25 µM (hT2R75): 20 to 40% | inhibition at 25 µM (hT2R4): 20 to 40% | inhibition at 25 µM (hT2R16): 20 to 40% | inhibition at 25 µM (hT2R3): 20 to 40% | screening result against bitter receptor 54 (hT2R54): ++ (40% to 60% inhibition = ++) | IC50 (hT2R14 [1]; [3]): 3750 nM | screening result against bitter receptor 65 (hT2R65): ++ (40% to 60% inhibition = ++) | inhibition at 25 µM (hT2R7): 20 to 40% | inhibition at 25 µM (hT2R14 [2]): > 80% | screening result against bitter receptor 44 (hT2R44): +++ (60% to 80% inhibition = +++) | screening result against bitter receptor 55 (hT2R55): ++++ (80% or greater inhibition = ++++)

Source: patent US9247759B2, “Identification of human T2R receptors that respond to bitter compounds that elicit the bitter taste in compositions, and the use thereof in assays to identify compounds that inhibit (block) bitter taste in compositions and use thereof” (SENOMYX, INC., priority 2007, dated 2016)
